Test results reported in article PMC4946967 (ACS chemical biology, 2016).
Numbering of substitutions follows the chain as printed. Entries after “also recorded” stand apart in the source; their conditions may differ.

Legend:
[1] = target: T1, mutant (D57N)-mouse(m)RNR-α (Mus musculus, UniProt P07742, D57N); format: cell-based; settings: 3 h treatment; 5, 50, 300 μM ClF, ClA, FlUMP; D57N-mRNR-α 3T3 cells
T1 sequence (P07742 1-792 D57N): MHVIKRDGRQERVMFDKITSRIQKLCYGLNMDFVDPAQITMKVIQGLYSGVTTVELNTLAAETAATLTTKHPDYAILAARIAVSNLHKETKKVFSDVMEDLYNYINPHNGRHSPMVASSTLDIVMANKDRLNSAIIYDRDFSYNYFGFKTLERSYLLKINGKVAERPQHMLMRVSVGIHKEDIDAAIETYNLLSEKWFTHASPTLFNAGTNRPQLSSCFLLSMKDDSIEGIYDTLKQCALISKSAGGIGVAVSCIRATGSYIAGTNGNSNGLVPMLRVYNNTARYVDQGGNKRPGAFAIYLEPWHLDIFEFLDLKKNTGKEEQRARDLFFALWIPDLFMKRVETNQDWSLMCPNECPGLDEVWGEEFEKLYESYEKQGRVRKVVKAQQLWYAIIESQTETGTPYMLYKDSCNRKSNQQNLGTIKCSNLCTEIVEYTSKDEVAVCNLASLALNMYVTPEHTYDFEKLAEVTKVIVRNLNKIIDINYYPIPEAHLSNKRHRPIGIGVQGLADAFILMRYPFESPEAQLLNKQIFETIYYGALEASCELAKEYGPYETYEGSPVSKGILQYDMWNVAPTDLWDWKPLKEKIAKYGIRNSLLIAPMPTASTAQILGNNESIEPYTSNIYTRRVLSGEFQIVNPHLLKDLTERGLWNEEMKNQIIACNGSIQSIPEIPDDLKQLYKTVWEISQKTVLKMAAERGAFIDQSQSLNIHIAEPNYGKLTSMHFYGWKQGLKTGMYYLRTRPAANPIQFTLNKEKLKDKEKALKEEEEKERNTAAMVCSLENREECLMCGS

[2] = test system: Flp-In 293 T-REx cells expressing RNR-α-Flag
[3] = test system: Flp-In 293 T-REx cells expressing D57N-α-Flag
[4] = target: T2, RNR-α (Homo sapiens, UniProt P23921); test: RNR-α-specific CDP/ATP-reductase activity inhibition assay; format: biochemical
T2 sequence (P23921 1-792): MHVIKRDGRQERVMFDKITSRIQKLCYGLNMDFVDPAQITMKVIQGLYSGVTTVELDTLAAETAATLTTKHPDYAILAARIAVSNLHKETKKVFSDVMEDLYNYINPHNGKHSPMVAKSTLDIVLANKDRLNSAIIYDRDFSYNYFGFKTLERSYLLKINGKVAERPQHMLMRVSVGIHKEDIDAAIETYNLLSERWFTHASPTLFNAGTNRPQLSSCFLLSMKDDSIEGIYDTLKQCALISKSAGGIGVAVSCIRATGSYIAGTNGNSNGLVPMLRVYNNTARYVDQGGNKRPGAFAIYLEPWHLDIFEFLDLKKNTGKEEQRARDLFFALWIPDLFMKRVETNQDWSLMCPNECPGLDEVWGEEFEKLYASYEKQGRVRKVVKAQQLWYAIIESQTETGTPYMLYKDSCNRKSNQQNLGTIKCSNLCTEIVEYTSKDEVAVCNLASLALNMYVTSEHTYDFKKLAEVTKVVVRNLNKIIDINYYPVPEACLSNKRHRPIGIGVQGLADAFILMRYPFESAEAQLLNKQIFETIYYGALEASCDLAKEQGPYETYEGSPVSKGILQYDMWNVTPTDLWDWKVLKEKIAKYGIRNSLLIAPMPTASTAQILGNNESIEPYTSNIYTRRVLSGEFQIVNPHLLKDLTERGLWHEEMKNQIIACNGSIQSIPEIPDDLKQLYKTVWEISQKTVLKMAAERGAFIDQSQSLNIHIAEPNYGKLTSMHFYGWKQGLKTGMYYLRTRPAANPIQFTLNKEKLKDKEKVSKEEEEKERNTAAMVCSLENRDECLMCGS

[5] = target: T3, D57N-human RNR-α mutant (Homo sapiens, UniProt P23921, D57N); settings: cited from earlier work
T3 sequence (P23921 1-792 D57N): T2 sequence (P23921 1-792) with D57N

[6] = test system: E. coli RNR; settings: cited from earlier work
[7] = target: T2, RNR-α; settings: cited from earlier work

## Nc1nc(Cl)nc2c1ncn2[C@@H]1O[C@H](CO)[C@@H](O)[C@@H]1F [ClF, clofarabine]
[1]
  RNR reductase activity in D57N-α-expressing lines after drug treatment: resistance
[2]
  effect of RNR-α overexpression on cytotoxicity relative to noninduced cells: small effect on the EC50
[3]
  protection against cytotoxicity upon tet induction relative to noninduced: > 20 fold

## Nc1nc(Cl)nc2c1ncn2[C@@H]1O[C@H](COP(=O)(O)OP(=O)(O)O)[C@@H](O)[C@@H]1F [ClFDP, clofarabine diphosphate]
[4]
  higher affinity than ClADP and FlUDP: 10–100 fold
[5]
  inhibition of D57N-α-specific RNR activity: can inhibit; also recorded: able to inhibit both wt- and D57N-α with similar potency
[6]
  inhibition of E. coli RNR: failed to inhibit

## Nc1ccn([C@@H]2O[C@H](COP(=O)(O)OP(=O)(O)OP(=O)(O)O)[C@@H](O)C2(F)F)c(=O)n1 [F2CTP]
[7]
  effect on RNR-α oligomeric state or holoenzyme activity: no effect
